Test: stability of simvastatin at incubation temperature (inferred from growth inhibition)
Settings: 95° C. compared with 85° C.

Q: With `CCC(C)(C)C(=O)O[C@H]1C[C@@H](C)C=C2C=C[C@H](C)[C@H](CC[C@@H]3C[C@@H](O)CC(=O)O3)[C@H]21` [simvastatin] as the compound, how does the stability of simvastatin read?
A: dramatically decreased

From patent US20110262954A1, “SHUTTLE VECTOR BASED TRANSFORMATION SYSTEM FOR PYROCOCCUS FURIOSUS” (UNIVERSITAT REGENSBURG, priority 2010, published 2011)
